Data as given in patent publication US10472358B2, “1H-pyrrolo[2,3-c]pyridin-7(6H)-ones and pyrazolo[3,4-c]pyridin-7(6H)-ones as inhibitors of BET proteins” (Incyte Corporation, priority 2014, dated 2019).

System: KMS.12.BM cells
Experiment: KMS.12.BM cell viability assay (Cell Titer-GLO, ATP quantitation)
Type: cell-based
Conditions: human myeloma cells, 3 days, concentration required for 50% cell death
Description: Example B1: KMS.12.BM Cell Viability Assay
KMS.12.BM cell line (human myeloma) was purchased from JCRB (Osaka, Japan) and maintained in RPMI with 10% FBS culture medium. To measure the cytotoxic activity of the compounds through ATP quantitation, the KMS.12.BM cells are plated in the RPMI culture medium at 5000 cells/well/per 100 μL into a 96-well polystyrene clear black tissue culture plate (Greiner-bio-one through VWR, NJ), in the presence or absence of a concentration range of test compounds. After 3 days, […] Cell Titer-GLO Luminescent (Promega, Madison, Wis.) cell culture agent is added to each well for 10 minutes at room temperature to stabilize the luminescent signal. This determines the number of viable cells in culture based on quantitation of the ATP present, which signals the presence of metabolically active cells. Luminescence is measured with the Top Count 384 (Packard Bioscience through Perkin Elmer, Boston, Mass.). Compound inhibition is determined relative to cells cultured with no drug and the IC50 is reported as the compound concentration required for 50% cell death.

Structure (SMILES) | IC50 (KMS-12-BM, 72 h) | IC50
CC(O)c1cc(-c2cn(C)c(=O)c3[nH]ccc23)c2c(c1)N(C)C(=O)C(C)(C)O2 (single isomer, unassigned) [Example 83A, 6-(1-hydroxyethyl)-2,2,4-trimethyl-8-(6-methyl-7-oxo-6,7-dihydro-1H-pyrrolo[2,3-c]pyridin-4-yl)-2H-1,4-benzoxazin-3(4H)-one] | ≤ 1 µM | –
CC(O)c1cc(-c2cn(C)c(=O)c3[nH]ccc23)c2c(c1)N(C)C(=O)C(C)(C)O2 (single isomer, unassigned) [Example 83B, 6-(1-hydroxyethyl)-2,2,4-trimethyl-8-(6-methyl-7-oxo-6,7-dihydro-1H-pyrrolo[2,3-c]pyridin-4-yl)-2H-1,4-benzoxazin-3(4H)-one] | – | ≤ 1 µM
Cn1cc(-c2cccc3c2OC(c2ccccc2)C(=O)N3)c2cc[nH]c2c1=O (stereo not drawn) [Example 1, 8-(6-methyl-7-oxo-6,7-dihydro-1H-pyrrolo[2,3-c]pyridin-4-yl)-2-phenyl-2H-1,4-benzoxazin-3(4H)-one] | ≤ 1 µM | –
CC(C)C1Oc2c(cccc2-c2cn(C)c(=O)c3[nH]ccc23)NC1=O (stereo not drawn) [Example 2, 2-isopropyl-8-(6-methyl-7-oxo-6,7-dihydro-1H-pyrrolo[2,3-c]pyridin-4-yl)-2H-1,4-benzoxazin-3(4H)-one] | ≤ 1 µM | –
CC1Oc2c(cccc2-c2cn(C)c(=O)c3[nH]ccc23)NC1=O (stereo not drawn) [Example 3, 2-methyl-8-(6-methyl-7-oxo-6,7-dihydro-1H-pyrrolo[2,3-c]pyridin-4-yl)-2H-1,4-benzoxazin-3(4H)-one] | ≤ 1 µM | –
CCC1Oc2c(cccc2-c2cn(C)c(=O)c3[nH]ccc23)NC1=O (stereo not drawn) [Example 4, 2-ethyl-8-(6-methyl-7-oxo-6,7-dihydro-1H-pyrrolo[2,3-c]pyridin-4-yl)-2H-1,4-benzoxazin-3(4H)-one] | ≤ 1 µM | –
Cn1cc(-c2cccc3c2OC(C2CC2)C(=O)N3)c2cc[nH]c2c1=O (stereo not drawn) [Example 6, 2-cyclopropyl-8-(6-methyl-7-oxo-6,7-dihydro-1H-pyrrolo[2,3-c]pyridin-4-yl)-2H-1,4-benzoxazin-3(4H)-one] | ≤ 1 µM | –
Cn1cc(-c2cccc3c2OC(C2CCOCC2)C(=O)N3)c2cc[nH]c2c1=O (stereo not drawn) [Example 7, 8-(6-methyl-7-oxo-6,7-dihydro-1H-pyrrolo[2,3-c]pyridin-4-yl)-2-(tetrahydro-2H-pyran-4-yl)-2H-1,4-benzoxazin-3(4H)-one] | ≤ 1 µM | –
CCC1Oc2c(-c3cn(C)c(=O)c4[nH]ccc34)cccc2N(C)C1=O (stereo not drawn) [Example 8, 2-ethyl-4-methyl-8-(6-methyl-7-oxo-6,7-dihydro-1H-pyrrolo[2,3-c]pyridin-4-yl)-2H-1,4-benzoxazin-3(4H)-one] | ≤ 1 µM | –
COc1cc2c(c(-c3cn(C)c(=O)c4[nH]ccc34)c1)OC(C(C)C)C(=O)N2 (stereo not drawn) [Example 9, 2-isopropyl-6-methoxy-8-(6-methyl-7-oxo-6,7-dihydro-1H-pyrrolo[2,3-c]pyridin-4-yl)-2H-1,4-benzoxazin-3(4H)-one] | ≤ 1 µM | –
COc1cc(-c2cn(C)c(=O)c3[nH]ccc23)c2c(c1)N(C)C(=O)C(C(C)C)O2 (stereo not drawn) [Example 10, 2-isopropyl-6-methoxy-4-methyl-8-(6-methyl-7-oxo-6,7-dihydro-1H-pyrrolo[2,3-c]pyridin-4-yl)-2H-1,4-benzoxazin-3(4H)-one] | ≤ 1 µM | –
CNC(=O)CN1C(=O)C(C(C)C)Oc2c(-c3cn(C)c(=O)c4[nH]ccc34)cc(OC)cc21 (stereo not drawn) [Example 12, 2-[2-isopropyl-6-methoxy-8-(6-methyl-7-oxo-6,7-dihydro-1H-pyrrolo[2,3-c]pyridin-4-yl)-3-oxo-2,3-dihydro-4H-1,4-benzoxazin-4-yl]-N-methylacetamide] | ≤ 1 µM | –
COc1cc(-c2cn(C)c(=O)c3[nH]ccc23)c2c(c1)N(CC(N)=O)C(=O)C(C(C)C)O2 (stereo not drawn) [Example 13, 2-[2-isopropyl-6-methoxy-8-(6-methyl-7-oxo-6,7-dihydro-1H-pyrrolo[2,3-c]pyridin-4-yl)-3-oxo-2,3-dihydro-4H-1,4-benzoxazin-4-yl]acetamide] | ≤ 1 µM | –
COc1cc(-c2cn(C)c(=O)c3[nH]ccc23)c2c(c1)N(CC(=O)N1CCN(C)CC1)C(=O)C(C(C)C)O2 (stereo not drawn) [Example 14, 2-isopropyl-6-methoxy-8-(6-methyl-7-oxo-6,7-dihydro-1H-pyrrolo[2,3-c]pyridin-4-yl)-4-[2-(4-methylpiperazin-1-yl)-2-oxoethyl]-2H-1,4-benzoxazin-3(4H)-one] | ≤ 1 µM | –
COc1cc(-c2cn(C)c(=O)c3[nH]ccc23)c2c(c1)N(Cc1ccncc1)C(=O)C(C(C)C)O2 (stereo not drawn) [Example 15, 2-isopropyl-6-methoxy-8-(6-methyl-7-oxo-6,7-dihydro-1H-pyrrolo[2,3-c]pyridin-4-yl)-4-(pyridin-4-ylmethyl)-2H-1,4-benzoxazin-3(4H)-one] | ≤ 1 µM | –
COc1cc(-c2cn(C)c(=O)c3[nH]ccc23)c2c(c1)N(C(C)C)C(=O)C(C(C)C)O2 (stereo not drawn) [Example 16, 2,4-diisopropyl-6-methoxy-8-(6-methyl-7-oxo-6,7-dihydro-1H-pyrrolo[2,3-c]pyridin-4-yl)-2H-1,4-benzoxazin-3(4H)-one] | ≤ 1 µM | –
CC(C)C1Oc2c(cc(C#N)cc2-c2cn(C)c(=O)c3[nH]ccc23)NC1=O (stereo not drawn) [Example 17, 2-isopropyl-8-(6-methyl-7-oxo-6,7-dihydro-1H-pyrrolo[2,3-c]pyridin-4-yl)-3-oxo-3,4-dihydro-2H-1,4-benzoxazine-6-carbonitrile] | ≤ 1 µM | –
CC(C)C1Oc2c(-c3cn(C)c(=O)c4[nH]ccc34)cc(C#N)cc2N(C)C1=O (stereo not drawn) [Example 18, 2-isopropyl-4-methyl-8-(6-methyl-7-oxo-6,7-dihydro-1H-pyrrolo[2,3-c]pyridin-4-yl)-3-oxo-3,4-dihydro-2H-1,4-benzoxazine-6-carbonitrile] | ≤ 1 µM | –
CC(C)C1Oc2c(-c3cn(C)c(=O)c4[nH]ccc34)cc(C(N)=O)cc2N(C)C1=O (stereo not drawn) [Example 19, 2-isopropyl-4-methyl-8-(6-methyl-7-oxo-6,7-dihydro-1H-pyrrolo[2,3-c]pyridin-4-yl)-3-oxo-3,4-dihydro-2H-1,4-benzoxazine-6-carboxamide] | ≤ 1 µM | –
CNC(=O)c1cc2c(c(-c3cn(C)c(=O)c4[nH]ccc34)c1)OC(C(C)C)C(=O)N2 (stereo not drawn) [Example 20, 2-isopropyl-N-methyl-8-(6-methyl-7-oxo-6,7-dihydro-1H-pyrrolo[2,3-c]pyridin-4-yl)-3-oxo-3,4-dihydro-2H-1,4-benzoxazine-6-carboxamide] | ≤ 1 µM | –
CC(C)C1Oc2c(cc([N+](=O)[O-])cc2-c2cn(C)c(=O)c3[nH]ccc23)NC1=O (stereo not drawn) [Example 21, 2-isopropyl-8-(6-methyl-7-oxo-6,7-dihydro-1H-pyrrolo[2,3-c]pyridin-4-yl)-6-nitro-2H-1,4-benzoxazin-3(4H)-one] | ≤ 1 µM | –
COc1cc(-c2cn(C)c(=O)c3[nH]ccc23)c2c(c1)N(C)CC(C(C)C)O2 (stereo not drawn) [Example 22, 4-(2-isopropyl-6-methoxy-4-methyl-3,4-dihydro-2H-1,4-benzoxazin-8-yl)-6-methyl-1,6-dihydro-7H-pyrrolo[2,3-c]pyridin-7-one] | 1 to 10 µM | –
COc1cc2c(c(-c3cn(C)c(=O)c4[nH]ccc34)c1)OC(C1CC1)C(=O)N2 (stereo not drawn) [Example 23, 2-cyclopropyl-6-methoxy-8-(6-methyl-7-oxo-6,7-dihydro-1H-pyrrolo[2,3-c]pyridin-4-yl)-2H-1,4-benzoxazin-3(4H)-one] | 1 to 10 µM | –
COc1cc2c(c(-c3cn(C)c(=O)c4[nH]ccc34)c1)OC(c1ccccc1)C(=O)N2 (stereo not drawn) [Example 24, 6-methoxy-8-(6-methyl-7-oxo-6,7-dihydro-1H-pyrrolo[2,3-c]pyridin-4-yl)-2-phenyl-2H-1,4-benzoxazin-3(4H)-one] | ≤ 1 µM | –
COc1cc2c(c(-c3cn(C)c(=O)c4[nH]ccc34)c1)OC(c1ccc(F)cc1Cl)C(=O)N2 (stereo not drawn) [Example 25, 2-(2-chloro-4-fluorophenyl)-6-methoxy-8-(6-methyl-7-oxo-6,7-dihydro-1H-pyrrolo[2,3-c]pyridin-4-yl)-2H-1,4-benzoxazin-3(4H)-one] | ≤ 1 µM | –
COc1cc2c(c(-c3cn(C)c(=O)c4[nH]ncc34)c1)OC(C(C)C)C(=O)N2 (stereo not drawn) [Example 26, 2-isopropyl-6-methoxy-8-(6-methyl-7-oxo-6,7-dihydro-1H-pyrazolo[3,4-c]pyridin-4-yl)-2H-1,4-benzoxazin-3(4H)-one] | ≤ 1 µM | –
COc1cc2c(c(-c3cn(C)c(=O)c4[nH]ccc34)c1)OC(C)(C)C(=O)N2 [Example 27, 6-methoxy-2,2-dimethyl-8-(6-methyl-7-oxo-6,7-dihydro-1H-pyrrolo[2,3-c]pyridin-4-yl)-2H-1,4-benzoxazin-3(4H)-one] | ≤ 1 µM | –
CC(C)C1Oc2c(cc(-c3cnn(C)c3)cc2-c2cn(C)c(=O)c3[nH]ccc23)NC1=O (stereo not drawn) [Example 28, 2-isopropyl-8-(6-methyl-7-oxo-6,7-dihydro-1H-pyrrolo[2,3-c]pyridin-4-yl)-6-(1-methyl-1H-pyrazol-4-yl)-2H-1,4-benzoxazin-3(4H)-one] | ≤ 1 µM | –
COc1cc2c(c(-c3cn(C)c(=O)c4[nH]ncc34)c1)OC(C)(C)C(=O)N2 [Example 29, 6-methoxy-2,2-dimethyl-8-(6-methyl-7-oxo-6,7-dihydro-1H-pyrazolo[3,4-c]pyridin-4-yl)-2H-1,4-benzoxazin-3(4H)-one] | ≤ 1 µM | –
Cn1cc(-c2cccc3c2OC2(CC2)C(=O)N3)c2cc[nH]c2c1=O [Example 30, 8-(6-methyl-7-oxo-6,7-dihydro-1H-pyrrolo[2,3-c]pyridin-4-yl)spiro[1,4-benzoxazine-2,1′-cyclopropan]-3(4H)-one] | ≤ 1 µM | –
